Among the data in PubChem BioAssay (NCI) are TGI and GI50 values, retold here.

Some test systems named below: ACHN renal; BT-549 breast; HCC-2998 colon; HS 578T breast; MCF7 breast; RPMI-8226 leukemia; SN12C renal; SNB-75 CNS; UACC-62 melanoma; SR leukemia.
Common to all, as to test: growth of human tumour cells (NCI), 48 h

Values joined by “and” are separate entries in the source; they are usually repeats but may differ in a detail not shown here. Equal entries are not always repeated.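 The compound was tested at five concentrations on cells cultured in 96-well plates, with a 48-hour exposure period. Here, GI50 denotes the concentration required for 50% inhibition of growth. TGI: total growth inhibition.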 Bounds are passed on as bounds.

On to `COc1cc2c(c3oc4c(O)cccc4c(=O)c13)CC(C(C)(O)CCl)O2` (stereo unspecified), for which the TGI with ACHN renal came out at 1.87 µM; in the test with BT-549 breast it was 12.5 µM; in the test on HCC-2998 colon, 8.35 µM; in the test on HS 578T breast, 6.89 µM; with MCF7 breast, 12.9 µM; with RPMI-8226 leukemia, 0.655 µM. Further, the TGI in the test on SN12C renal stood at 2.4 µM; with SNB-75 CNS, 8.18 µM; in the test on UACC-62 melanoma, 2.3 µM.

On to `O=C(NCCN1CCOCC1)c1cc2c(Oc3ccc(NC(=O)C4(C(=O)Nc5ccc(F)cc5)CC4)cc3)ccnc2[nH]1`, for which the GI50 in the test with ACHN renal was 7.84 µM; with BT-549 breast, 7.85 µM; with HCC-2998 colon, 15.3 µM; with HS 578T breast, 1.32 µM; with MCF7 breast it was 2.36 µM; with RPMI-8226 leukemia, 9.45 µM. Besides, the GI50 in the test with SN12C renal was 1.44 µM; in the test with SNB-75 CNS, 0.893 µM; in the test on UACC-62 melanoma it was 4.26 µM. In addition, the TGI with ACHN renal is over 100 µM; in the test with BT-549 breast, over 54.8 µM; in the test on HCC-2998 colon, 51.9 µM; in the test with HS 578T breast it was over 71.1 µM; in the test with MCF7 breast it was 33.2 µM; in the test on RPMI-8226 leukemia, 42.2 µM. Also, the TGI in the test with SN12C renal is over 100 µM; with SNB-75 CNS, 9.64 µM; with UACC-62 melanoma it was 22.7 µM.

For the compound `C=C1C(=O)C23C(O)CC4C(C)(C)CCC(O)C4(C)C2CC(OC(C)=O)C1[C@H]3O` (stereo partly specified), the TGI was 8.94 µM in the test with ACHN renal; 14.8 µM in the test with HCC-2998 colon; 53.7 µM with HS 578T breast; over 32 µM in the test with RPMI-8226 leukemia; 12 µM in the test with SN12C renal; 22.7 µM with SNB-75 CNS. In addition, in the test on SR leukemia, the TGI was over 41.1 µM.

Turning to `O=C(O)CN(CCN(CC(=O)O)CC(=O)O)CC(=O)O.[Cu+2].[Na+]`, the GI50 with ACHN renal, in the test with BT-549 breast, with HCC-2998 colon, with HS 578T breast, in the test on MCF7 breast and with RPMI-8226 leukemia was over 100 µM throughout. Moreover, the GI50 in the test on SN12C renal, in the test with SNB-75 CNS and in the test on UACC-62 melanoma was over 100 µM in each case. Further, the TGI in the test on ACHN renal, in the test with BT-549 breast, in the test on HCC-2998 colon, in the test on HS 578T breast, in the test on MCF7 breast and with RPMI-8226 leukemia was over 100 µM throughout. The TGI in the test on SN12C renal, in the test with SNB-75 CNS and in the test with UACC-62 melanoma was over 100 µM in each case.

On to `C=C1C(C)C2C(Cc3ccccc3)NC(=O)C23C(OC(C)=O)C=CC(C)(O)C(=O)C(C)C/C=C/C3C1O` (stereo unspecified), for which the GI50 with ACHN renal is 1.28 µM; in the test with HCC-2998 colon, over 500 µM; with HS 578T breast it was 0.0185 µM and 0.0551 µM; with MCF7 breast it was 8.87 µM; with RPMI-8226 leukemia it was 3.9 µM; with SN12C renal it was 14.9 µM. Further, the GI50 in the test with SNB-75 CNS is 0.0218 µM and 0.05 µM; in the test with UACC-62 melanoma it was 29.4 µM. For the same compound, the TGI in the test with ACHN renal was over 196 µM; in the test with HCC-2998 colon, over 500 µM; in the test with HS 578T breast it was 2.07 µM and 1.18 µM; in the test with MCF7 breast, 87 µM and 275 µM; with RPMI-8226 leukemia, 65.5 µM and > 500 µM; in the test on SN12C renal, 499 µM. Also, the TGI in the test on SR leukemia is over 289 µM; with UACC-62 melanoma, over 285 µM.

With `COc1cc(C2c3cc4c(cc3[C@@H](Nc3ccc(F)cc3)C3COC(=O)[C@H]23)OCO4)cc(OC)c1O` (stereo partly specified), the GI50 in the test on ACHN renal is 0.326 µM; in the test with RPMI-8226 leukemia, 0.531 µM; in the test on SN12C renal it was 0.718 µM; in the test on SNB-75 CNS it was 0.438 µM; with SR leukemia, 0.0567 µM; with UACC-62 melanoma, 0.941 µM. Besides, the TGI with ACHN renal was 3.39 µM; in the test with BT-549 breast it was 8.39 µM; with HCC-2998 colon, 8.96 µM; with MCF7 breast, over 65.2 µM; with RPMI-8226 leukemia it was 17.1 µM; with SN12C renal it was 9.64 µM. The TGI with SR leukemia was 0.612 µM and 4.27 µM; in the test with UACC-62 melanoma, 7.78 µM.

On to `O=C(CC1(O)C(=O)Nc2ccc(Cl)cc21)c1ccc(C(=O)NCC2CCC3(CC2)OOC2(CCCCC2)OO3)cc1` (stereo unspecified), for which the GI50 is 3.01 µM with BT-549 breast; 4.27 µM in the test with HCC-2998 colon; 3.44 µM with HS 578T breast; 2.37 µM in the test on MCF7 breast; 1.73 µM with RPMI-8226 leukemia; 3.45 µM in the test on SN12C renal. Besides, the GI50 was 1.34 µM in the test on SNB-75 CNS and 5.05 µM in the test with UACC-62 melanoma. Also, the TGI is 16.1 µM in the test with BT-549 breast; 21.4 µM with HCC-2998 colon; over 28.2 µM in the test with HS 578T breast; 9.88 µM in the test on MCF7 breast; 4.72 µM in the test on RPMI-8226 leukemia; 18.4 µM in the test with SN12C renal. In addition, the TGI turned out to be 3.25 µM with SNB-75 CNS and 27.6 µM in the test with UACC-62 melanoma.

`COc1cc([C@@H]2c3cc4c(cc3[C@@H](OC3OC5COC(C)OC5C(O)C3O)[C@H]3COC(=O)[C@H]23)OCO4)cc(OC)c1O` (stereo partly specified): the GI50 in the test on BT-549 breast is 1.83 µM; in the test on HS 578T breast, 2.86 µM and 5.72 µM; with RPMI-8226 leukemia, 14.8 µM and 2.41 µM. Further, the TGI in the test on BT-549 breast is 41.2 µM and 35 µM and 6.05 µM; in the test on MCF7 breast it was 103 µM and 500 µM and 432 µM; in the test with RPMI-8226 leukemia, > 71.7 µM and 68 µM; in the test with SR leukemia, 84.8 µM and 26.1 µM and 13.3 µM.

`Cc1ccc2nc(CN(CCN(Cc3nc4ccc(C)cc4[nH]3)Cc3nc4ccc(C)cc4[nH]3)Cc3nc4ccc(C)cc4[nH]3)[nH]c2c1`: the GI50 was 1.6 µM with ACHN renal; 1.74 µM in the test on HCC-2998 colon; 1.3 µM in the test on RPMI-8226 leukemia; 1.86 µM in the test on SN12C renal; 1.32 µM in the test with SNB-75 CNS; 1.49 µM with SR leukemia. For the same compound, in the test on UACC-62 melanoma, the GI50 was 1.72 µM. Moreover, the TGI with ACHN renal came out at 2.94 µM; in the test on HCC-2998 colon it was 3.18 µM; with RPMI-8226 leukemia it was 2.95 µM; in the test with SN12C renal it was 3.26 µM; in the test on SNB-75 CNS it was 2.6 µM; with SR leukemia, 3.22 µM. Besides, the TGI in the test on UACC-62 melanoma was found to be 3.1 µM.

For `O=C1N(c2ccc(Cl)cc2)C(=O)C2(SC=NN2Cc2ccccc2)N1c1ccc(Cl)cc1` (stereo unspecified), the TGI with ACHN renal, in the test on HCC-2998 colon, in the test with RPMI-8226 leukemia, in the test on SN12C renal, in the test on SNB-75 CNS and in the test on SR leukemia was over 100 µM in each case. In addition, the TGI in the test on UACC-62 melanoma was over 100 µM.
